From US9597336B2, “Therapy for treatment of chronic degenerative brain diseases and nervous system injury” (THE REGENTS OF THE UNIVERSITY OF CALIFORNIA, priority 2004, dated 2017)
Entries after “also recorded” stand apart in the source; their conditions may differ.

How the values were obtained:
[1] = test system: gangliosides GM1, GM2, and GM3 in the brain; test: Ganglioside accumulation in brain of allopregnanolone-treated Niemann Pick type-C mice; format: in vivo, mouse
Protocol: (§1) The materials and methods used for the following experiments have been described in Griffin L. D., et al., Nature Medicine 10: 704-711 (2004). This reference is hereby incorporated by reference in its entirety.
Mice were given a single injection of allopregnanolone, prepared in 20% βcyclodextrin in phosphate buffered saline, at a concentration of 25 mg/kg. The injection was on day 7 of life (P7, postnatal day 7). Concentrations of gangliosides GM1, GM2, GM3, were measured as well as other lipids such as ceramides and cerebrosides.

[2] = test system: CD4+, CD8+, MAC1+ and MHCII+ cells in brain; test: Immunocytochemistry of inflammatory cells in brains of NP-C mice; format: in vivo, mouse
Protocol: as §1
(§2) Mice were again given a single injection of allopregnanolone, prepared in 20% β-cyclodextrin in phosphate buffered saline, at a concentration of 25 mg/kg. The injection was on day 7 of life (P7, postnatal day 7). Inflammation was measured by assessing the number of CD4^+ CD8^+, MAC1^+, and MHCII^+ cells, using immunocytochemistry. Concentrations of brain cytokines were also measured, using by enzyme linked immunoabsorbent (ELISA) assays.

[3] = test system: brain cytokines (TGFβ, IL1β); test: Brain cytokine concentrations by ELISA in NP-C mice; format: in vivo, mouse; conditions: adult NP-C mice treated at day 7, vs untreated NP-C mice
Protocol: as §1, §2

[4] = test system: cerebellar astrocytes from P3 cerebella; test: Neurotrophin secretion in cultured cerebellar astrocytes (ELISA); format: cell-based, mouse
Protocol: as §1
Pure cultures of cerebellar astrocytes from P3 cerebella were cultured for 1-3 days±10 nM allopregnanolone, and NGF was assayed every 24 hr by ELISA.

Niemann Pick type-C mice [5] = test: Allopregnanolone, T0901317 and their combination in NP-C mice: lifespan, rotorod; format: in vivo, mouse; conditions: for lifespan (mean): allopregnanolone 25 mg/kg s.c. single injection at P7, T0901317 50 mg/kg/day from day 18; for onset of symptoms: rotorod trials; for age at which loss of motor function begins: untreated begin at 35 days
Protocol: as §1
Mice were given a single injection of allopregnanolone, prepared in 20% β-cyclodextrin in phosphate buffered saline, at a concentration of 25 mg/kg. The injection was on day 7 of life (P7, postnatal day 7). T0901317 treatment was started on day 18 (50 mg/kg/day) in chow. Efficacy was assessed by measuring body weight, and neurological symptoms, using a rotorod test. Efficacy was further assessed by measuring lifespan.

Niemann Pick type-C mice [6] = test: Ganaxolone treatment of NP-C mice: lifespan, weight, locomotor skills; format: in vivo, mouse
Protocol: as §1
Mice were given a single injection of ganaxolone, prepared in 20% β-cyclodextrin in phosphate buffered saline, at a concentration of 25 mg/kg. The injection was on day 7 of life (P7, postnatal day 7).
Efficacy of treatment was assessed by measuring body weight, neurological symptoms, using behavioral tests such as wire hang test, rope climbing test, walking on an mesh inclined plane, and walking on a horizontal surface, measuring coordination, use of all 4 limbs, posture, tail placement. Efficacy was also assessed by measuring lifespan. Results of these experiments are summarized below, and are shown graphically in FIG. 7.

[7] = adult (60-day old) NP-C mice treated at P7

CC(=O)[C@H]1CC[C@H]2[C@@H]3CC[C@H]4C[C@H](O)CC[C@]4(C)[C@H]3CC[C@]12C [allopregnanolone]
amount of the gangliosides GM1, GM2, and GM3 in brain ([1]; NP-C mice, single injection 25 mg/kg at P7, compared with untreated controls): reduced
degree of reduction in the gangliosides by timing of treatment ([1]; NP-C mice, treatment at postnatal day 7 compared with postnatal day 10): greater reduction
GM1 or GM2 immunostaining, cerebellum [1, 7]: only slight immunostaining
GM1 or GM2 immunostaining, thalamus/hypothalamus [1, 7]: only very slight immunostaining
apoptotic neurons in the brain ([2]; NP-C mice, 25 mg/kg single injection at P7): substantial reduction
number of T cells and activated macrophages in brain ([2]; NP-C mice, 25 mg/kg single injection at P7, vs untreated controls): significant reduction
increase in immunostaining for CD4 and CD8 T cells, cerebellum [2, 7]: absent
increase in immunostaining for CD4 and CD8 T cells, thalamus/hypothalamus [2, 7]: absent
immunostaining for MAC1 and MHC II (activated macrophages), thalamus ([2]; adult (60-day old) NP-C mice treated at day 7, vs untreated NP-C mice): substantially reduced
brain cytokine concentrations (TGFβ and IL1β) [3]: substantial reduction; also recorded: substantially reduced
production of NGF ([4]; NP-C mouse cerebellar astrocytes cultured 1-3 days with 10 nM, vs untreated control cells): increases
concentrations of the neurotrophins NGF and BDNF ([4]; cerebellar cells in culture): increases
lifespan (mean) (Niemann Pick type-C mice [5]): 112 days
onset of symptoms (Niemann Pick type-C mice [5]): delayed
age at which loss of motor function begins (Niemann Pick type-C mice [5]; rotorod): 49 days

O=S(=O)(c1ccccc1)N(CC(F)(F)F)c1ccc(C(O)(C(F)(F)F)C(F)(F)F)cc1 [T0901317]
lifespan (mean) (Niemann Pick type-C mice [5]): 80 days
course of loss of motor function / decline in symptoms (Niemann Pick type-C mice [5]; rotorod): blunted
onset of symptoms (Niemann Pick type-C mice [5]): delayed
age at which loss of motor function begins (Niemann Pick type-C mice [5]; rotorod): 42 days

CC(=O)[C@H]1CC[C@H]2[C@@H]3CC[C@H]4C[C@](C)(O)CC[C@]4(C)[C@H]3CC[C@]12C [ganaxolone]
weight loss and tremor (Niemann Pick type-C mice [6]): delays
lifespan (average) (Niemann Pick type-C mice [6]; single injection 25 mg/kg at P7, untreated 67 (±10) days): 118 days
duration of the loss of motor function (Niemann Pick type-C mice [6]; single injection at P7, untreated 3-4 weeks): 5 weeks
age at which loss of motor function (locomotion and coordination) begins (Niemann Pick type-C mice [6]; single injection at P7, untreated begin at 6-7 weeks): 10 weeks
age at which weight loss begins (Niemann Pick type-C mice [6]; single injection at P7, untreated begin at 6 weeks): 10 weeks
rate of weight loss (Niemann Pick type-C mice [6]; single injection at P7, vs untreated NP-C mice): more slowly
